The NIST ThermoML archive (doi:10.1021/je060271a)

Conditions: Liquid, Vibrating tube method

CCCCCCC(=O)OCC(COC(=O)CCCCCC)(COC(=O)CCCCCC)COC(=O)CCCCCC [pentaerythritol tetraheptanoate]
Conditions | mass density [kg/m3]
323.15 K, 32352 kPa | 976
323.15 K, 32396 kPa | 976
323.15 K, 32734 kPa | 976.2
323.15 K, 32779 kPa | 976.2
323.15 K, 32824 kPa | 976.2
323.15 K, 32870 kPa | 976.3
323.15 K, 32924 kPa | 976.3
323.15 K, 32970 kPa | 976.3
323.15 K, 33016 kPa | 976.4
323.15 K, 33072 kPa | 976.4
323.15 K, 33118 kPa | 976.4
323.15 K, 33164 kPa | 976.4
323.15 K, 33219 kPa | 976.5
323.15 K, 33314 kPa | 976.4
323.15 K, 33463 kPa | 976.7
323.15 K, 33519 kPa | 976.7
323.15 K, 33566 kPa | 976.7
323.15 K, 33612 kPa | 976.6
323.15 K, 33657 kPa | 976.7
323.15 K, 33718 kPa | 976.7
323.15 K, 33778 kPa | 976.7
323.15 K, 33830 kPa | 976.8
323.15 K, 33882 kPa | 976.7
323.15 K, 33940 kPa | 976.9
323.15 K, 33970 kPa | 976.8
323.15 K, 34065 kPa | 976.9
323.15 K, 34098 kPa | 977
323.15 K, 34123 kPa | 977
323.15 K, 34149 kPa | 977.1
323.15 K, 34181 kPa | 977
323.15 K, 34207 kPa | 977.1
323.15 K, 34235 kPa | 977.1
323.15 K, 34262 kPa | 977.1
323.15 K, 34295 kPa | 977
323.15 K, 34323 kPa | 977.2
323.15 K, 34351 kPa | 977.1
323.15 K, 34379 kPa | 977.2
323.15 K, 34415 kPa | 977.1
323.15 K, 34444 kPa | 977.2
323.15 K, 34481 kPa | 977.2
323.15 K, 34513 kPa | 977.3
323.15 K, 34545 kPa | 977.2
323.15 K, 34570 kPa | 977.3
323.15 K, 34571 kPa | 977.2
323.15 K, 34574 kPa | 977.2
323.15 K, 34576 kPa | 977.3
323.15 K, 34578 kPa | 977.2
323.15 K, 34581 kPa | 977.3
323.15 K, 34584 kPa | 977.2
323.15 K, 34586 kPa | 977.3
323.15 K, 34589 kPa | 977.3
323.15 K, 34593 kPa | 977.2
323.15 K, 34596 kPa | 977.3
323.15 K, 34600 kPa | 977.3
323.15 K, 34605 kPa | 977.3
323.15 K, 34611 kPa | 977.3
323.15 K, 34616 kPa | 977.2
343.13 K, 13322 kPa | 950.4
343.13 K, 13336 kPa | 950.3
343.13 K, 13347 kPa | 950.4
343.13 K, 13362 kPa | 950.3
343.13 K, 13471 kPa | 950.5
343.13 K, 13485 kPa | 950.5
343.14 K, 13145 kPa | 950
343.14 K, 13156 kPa | 950.2
343.14 K, 13167 kPa | 950.1
343.14 K, 13180 kPa | 950.2
343.14 K, 13192 kPa | 950.3
343.14 K, 13203 kPa | 950.3
343.14 K, 13216 kPa | 950.2
343.14 K, 13227 kPa | 950.2
343.14 K, 13238 kPa | 950.2
343.14 K, 13252 kPa | 950.1
343.14 K, 13263 kPa | 950.3
343.14 K, 13274 kPa | 950.4
343.14 K, 13286 kPa | 950.4
343.14 K, 13300 kPa | 950.3
343.14 K, 13311 kPa | 950.2
343.14 K, 13373 kPa | 950.2
343.14 K, 13384 kPa | 950.4
343.14 K, 13399 kPa | 950.4
343.14 K, 13410 kPa | 950.5
343.14 K, 13420 kPa | 950.4
343.14 K, 13431 kPa | 950.5
343.14 K, 13448 kPa | 950.3
343.14 K, 13460 kPa | 950.4
343.14 K, 13497 kPa | 950.4
343.14 K, 13509 kPa | 950.4
343.14 K, 13521 kPa | 950.4
343.14 K, 13535 kPa | 950.5
343.14 K, 13547 kPa | 950.5
343.14 K, 13560 kPa | 950.6
343.14 K, 13574 kPa | 950.5
343.14 K, 13586 kPa | 950.6
343.14 K, 13598 kPa | 950.5
343.14 K, 13610 kPa | 950.6
343.14 K, 13622 kPa | 950.6
343.14 K, 13636 kPa | 950.6
343.14 K, 13648 kPa | 950.7
343.14 K, 13870 kPa | 950.7
343.14 K, 13883 kPa | 950.7
343.14 K, 13898 kPa | 950.7
343.14 K, 13911 kPa | 950.8
343.14 K, 13926 kPa | 950.7
343.14 K, 13938 kPa | 950.8
343.14 K, 13951 kPa | 950.8
343.14 K, 13964 kPa | 950.8
343.14 K, 13977 kPa | 950.7
343.14 K, 13992 kPa | 950.8
343.14 K, 14004 kPa | 950.8
343.14 K, 14018 kPa | 950.8
343.14 K, 14033 kPa | 950.8
343.14 K, 14046 kPa | 950.8
343.14 K, 14058 kPa | 950.9
343.14 K, 14074 kPa | 950.7
343.14 K, 14087 kPa | 950.9
343.14 K, 14100 kPa | 950.9
343.14 K, 14113 kPa | 950.8
343.14 K, 14129 kPa | 950.8
343.14 K, 14142 kPa | 950.8
343.14 K, 14157 kPa | 951
343.14 K, 14170 kPa | 951
343.14 K, 14183 kPa | 951
343.14 K, 14199 kPa | 951
343.14 K, 14212 kPa | 950.9
343.14 K, 14225 kPa | 950.9
343.14 K, 14239 kPa | 951
343.14 K, 14255 kPa | 951
343.14 K, 14268 kPa | 950.9
343.14 K, 14281 kPa | 951.1
343.14 K, 14298 kPa | 951
343.14 K, 14311 kPa | 951.1
343.14 K, 14324 kPa | 951
343.14 K, 14340 kPa | 950.9
343.14 K, 14354 kPa | 951.1
343.14 K, 14367 kPa | 951.1
343.14 K, 14383 kPa | 951
343.14 K, 16135 kPa | 952.3
343.14 K, 16152 kPa | 952.4
343.14 K, 16173 kPa | 952.3
343.14 K, 16190 kPa | 952.3
343.14 K, 16208 kPa | 952.3
343.14 K, 16228 kPa | 952.4
343.14 K, 16245 kPa | 952.4
343.14 K, 16263 kPa | 952.3
343.14 K, 16283 kPa | 952.4
343.14 K, 16301 kPa | 952.4
343.14 K, 16319 kPa | 952.4
343.14 K, 16339 kPa | 952.5
343.14 K, 16357 kPa | 952.5
343.14 K, 16376 kPa | 952.4
343.14 K, 16394 kPa | 952.5
343.14 K, 16415 kPa | 952.5
343.14 K, 16433 kPa | 952.5
343.14 K, 16451 kPa | 952.7
343.14 K, 16472 kPa | 952.5
343.14 K, 16490 kPa | 952.5
343.14 K, 16508 kPa | 952.6
343.14 K, 16526 kPa | 952.6
343.14 K, 16548 kPa | 952.6
343.14 K, 16566 kPa | 952.5
343.14 K, 16585 kPa | 952.6
343.14 K, 16607 kPa | 952.7
343.14 K, 16626 kPa | 952.7
343.14 K, 16645 kPa | 952.7
343.14 K, 16664 kPa | 952.6
343.14 K, 16682 kPa | 952.6
343.14 K, 16704 kPa | 952.7
343.14 K, 16722 kPa | 952.8
343.14 K, 16744 kPa | 952.8
343.14 K, 16763 kPa | 952.7
343.14 K, 16781 kPa | 952.7
343.14 K, 16800 kPa | 952.7
343.14 K, 16822 kPa | 952.8
343.14 K, 16841 kPa | 952.8
343.14 K, 16863 kPa | 952.8
343.14 K, 16901 kPa | 952.8
343.14 K, 16924 kPa | 952.8
343.14 K, 16943 kPa | 952.9
343.14 K, 16962 kPa | 953
343.14 K, 16981 kPa | 952.9
343.14 K, 17004 kPa | 952.9
343.14 K, 17022 kPa | 953
343.14 K, 17042 kPa | 953
343.14 K, 17065 kPa | 953
343.14 K, 17084 kPa | 953.1
343.14 K, 17107 kPa | 952.9
343.14 K, 17126 kPa | 952.9
343.14 K, 17146 kPa | 953
343.14 K, 17165 kPa | 953
343.14 K, 17188 kPa | 953.1
343.14 K, 17208 kPa | 953
343.14 K, 17227 kPa | 953.1
343.14 K, 17251 kPa | 953.1
343.14 K, 17270 kPa | 953.2
343.14 K, 17294 kPa | 953.2
343.14 K, 17314 kPa | 953.2
343.14 K, 17334 kPa | 953.1
343.14 K, 17358 kPa | 953.1
343.14 K, 17378 kPa | 953.1
343.14 K, 17398 kPa | 953.2
343.14 K, 17419 kPa | 953
343.14 K, 17443 kPa | 953.1
343.14 K, 17593 kPa | 953.4
343.14 K, 17613 kPa | 953.2
343.14 K, 17638 kPa | 953.3
343.14 K, 17659 kPa | 953.4
343.14 K, 17680 kPa | 953.3
343.14 K, 17701 kPa | 953.4
343.14 K, 17722 kPa | 953.4
343.14 K, 17747 kPa | 953.4
343.14 K, 17768 kPa | 953.5
343.14 K, 17789 kPa | 953.5
343.14 K, 17815 kPa | 953.5
343.14 K, 17835 kPa | 953.5
343.14 K, 17860 kPa | 953.4
343.14 K, 17902 kPa | 953.5
343.14 K, 17928 kPa | 953.4
343.14 K, 18040 kPa | 953.6
343.14 K, 18066 kPa | 953.6
343.14 K, 18088 kPa | 953.5
343.14 K, 18109 kPa | 953.6
343.14 K, 18130 kPa | 953.7
